From ChEMBL document CHEMBL5653610, “The novel phosphodiesterase 10A inhibitor THPP-1 has antipsychotic-like effects in rat and improves cognition in rat and rhesus monkey” (Neuropharmacology, 2013)
Activity calls are given as the source filed them. The calls are words filed in the database; no cut-off is given here.

Tested on: Rattus norvegicus
Test: Antipsychotic activity in Wistar Hannover rat assessed as increase in recognition at 0.56 mg/kg, ip dosed 30 mins before identical objects by novel object recognition test
Format: functional, organism-based

In the case of COc1cc2c(cc1OC)C(=O)C(CC1CCN(Cc3ccccc3)CC1)C2 (stereo unspecified), the Activity was “Active”.
